# Results taken from patent US11091496B2, “Opioid ketal compounds and uses thereof” (priority 2013, dated 2021).
# Read-outs that look alike come from different tables or passages of the source.
# What was measured:
# [1] = Hydrolysis in Simulated Gastric Fluid (SGF) at 37° C., LC/MS; details: for Hydrolysis in SGF: hydrolyzed in 6.75 hours; for Oxycodone, Ketal A-D in hydrolysis mixture: oxycodone 2,4-pentanediol ketal isomers + unreacted oxycodone, 2 mg/nil, SGF 37° C.
# [2] = assay type: physicochemical; details: for time to almost complete hydrolysis: 0.1N HCl 37° C., FIG. 10; for % Oxycodone, % IVA-IVD in hydrolysis mixture: total 1 mg/ml; for % Oxycodone, % IVA-IVD in hydrolysis mixture / % IVC in hydrolysis mixture / % Oxycodone, % IVD in hydrolysis mixture: 0.1 N HCl 37° C.; for relative rate of hydrolysis: comparison of stereoisomers; for % IVC in hydrolysis mixture: isomer IVC tested separately; for % IVC in hydrolysis mixture / % Oxycodone, % IVD in hydrolysis mixture: 1 mg/ml, normalized; for % Oxycodone, % IVD in hydrolysis mixture: isomer IVD tested separately
# [3] = unreacted oxycodone + four isomers of Formula IV, 1 mg/ml, 5% acetic acid 100° C.
# [4] = Ketal hydrolysis at varying pH, buffers at 37° C.; details: 1 mg/ml; for hydrolysis of the ketal: Table 13b, 37° C.
compound,measurement,setting,value
COc1ccc2c3c1OC1C4(CCC5(O)[C@@H](C2)N(C)CC[C@]315)OCC(C)O4 (some centres unmarked),Hydrolysis in SGF,[1],Trace hydrolysis in 6.75 hours
COc1ccc2c3c1OC1C4(CCC5[C@@H](C2)N(C)CC[C@@]351)OCCO4 (some centres unmarked),Hydrolysis in SGF,[1],~2% hydrolyzed in 6.75 hours
"COc1ccc2c3c1OC1C4(CCC5(O)C(C2)N(C)CCC315)OC(C)CC(C)O4 (stereo not drawn) [IVB, oxycodone 2S,4R-pentanediol ketal]","Oxycodone, Ketal A-D in hydrolysis mixture",[1]; 0 h,10.3
same,"Oxycodone, Ketal A-D in hydrolysis mixture",[1]; 0.58 h,9.8
same,"Oxycodone, Ketal A-D in hydrolysis mixture",[1]; 1.25 h,10.4
same,"Oxycodone, Ketal A-D in hydrolysis mixture",[1]; 2 h,9.7
same,"Oxycodone, Ketal A-D in hydrolysis mixture",[1]; 3 h,10.2
same,"Oxycodone, Ketal A-D in hydrolysis mixture",[1]; 4 h,9.1
"COc1ccc2c3c1O[C@H]1C4(CCC5(O)[C@@H](C2)N(C)CC[C@]315)O[C@@H](C)C[C@H](C)O4 (stereo partly drawn) [IVC, oxycodone 2S,4S-pentanediol ketal]",time to almost complete hydrolysis,[2],≤ 8 h
same,"% Oxycodone, % IVA-IVD in hydrolysis mixture",[2]; 0 h,35.8%
same,"% Oxycodone, % IVA-IVD in hydrolysis mixture",[2]; 0.583 h,29.2%
same,"% Oxycodone, % IVA-IVD in hydrolysis mixture",[2]; 1.167 h,26%
same,"% Oxycodone, % IVA-IVD in hydrolysis mixture",[2]; 1.75 h,20.6%
same,"% Oxycodone, % IVA-IVD in hydrolysis mixture",[2]; 2.33 h,17.7%
same,"% Oxycodone, % IVA-IVD in hydrolysis mixture",[2]; 2.92 h,15%
same,"% Oxycodone, % IVA-IVD in hydrolysis mixture",[2]; 4 h,10.3%
same,"% Oxycodone, % IVA-IVD in hydrolysis mixture",[2]; 6.5 h,4%
same,"% Oxycodone, % IVA-IVD in hydrolysis mixture",[2]; 9.75 h,1.5%
same,"% Oxycodone, % IVA-IVD in hydrolysis mixture",[2]; 13.75 h,0%
same,"% Oxycodone, % IVA-IVD in hydrolysis mixture",[2]; 25 h,0%
same,relative rate of hydrolysis,[2],hydrolyzes relatively slowly
same,% IVC in hydrolysis mixture,[2]; 0 h,98.7%
same,% IVC in hydrolysis mixture,[2]; 0.75 h,71.5%
same,% IVC in hydrolysis mixture,[2]; 1.5 h,54%
same,% IVC in hydrolysis mixture,[2]; 3.33 h,18.8%
same,% IVC in hydrolysis mixture,[2]; 6 h,4.7%
same,% IVC in hydrolysis mixture,[2]; 8 h,2.1%
same,"% Oxycodone, % IVA-IVD in hydrolysis mixture",[3]; 0 h,36.2%
same,"% Oxycodone, % IVA-IVD in hydrolysis mixture",[3]; 0.5 h,12.8%
same,"% Oxycodone, % IVA-IVD in hydrolysis mixture",[3]; 1 h,5.9%
same,"% Oxycodone, % IVA-IVD in hydrolysis mixture",[3]; 2 h,0.9%
same,"% Oxycodone, % IVA-IVD in hydrolysis mixture",[3]; 4.35 h,0%
same,"% Oxycodone, % IVA-IVD in hydrolysis mixture",[3]; 10 h,0%
"COc1ccc2c3c1O[C@H]1C4(CCC5(O)[C@@H](C2)N(C)CC[C@]315)O[C@H](C)C[C@@H](C)O4 (stereo partly drawn) [IVD, oxycodone 2R,4R-pentanediol ketal]",time to almost complete hydrolysis,[2],≤ 2 h
same,"% Oxycodone, % IVA-IVD in hydrolysis mixture",[2]; 0 h,17.3%
same,"% Oxycodone, % IVA-IVD in hydrolysis mixture",[2]; 0.583 h,8.6%
same,"% Oxycodone, % IVA-IVD in hydrolysis mixture",[2]; 1.167 h,4.8%
same,"% Oxycodone, % IVA-IVD in hydrolysis mixture",[2]; 1.75 h,2.6%
same,"% Oxycodone, % IVA-IVD in hydrolysis mixture",[2]; 2.33 h,1.5%
same,"% Oxycodone, % IVA-IVD in hydrolysis mixture",[2]; 2.92 h,0.7%
same,"% Oxycodone, % IVA-IVD in hydrolysis mixture",[2]; 4 h,0%
same,"% Oxycodone, % IVA-IVD in hydrolysis mixture",[2]; 6.5 h,0%
same,"% Oxycodone, % IVA-IVD in hydrolysis mixture",[2]; 9.75 h,0%
same,"% Oxycodone, % IVA-IVD in hydrolysis mixture",[2]; 13.75 h,0%
same,"% Oxycodone, % IVA-IVD in hydrolysis mixture",[2]; 25 h,0%
same,relative rate of hydrolysis,[2],hydrolyzes relatively quickly
same,"% Oxycodone, % IVD in hydrolysis mixture",[2]; 0 h,99.8%
same,"% Oxycodone, % IVD in hydrolysis mixture",[2]; 0.17 h,70%
same,"% Oxycodone, % IVD in hydrolysis mixture",[2]; 0.33 h,44.8%
same,"% Oxycodone, % IVD in hydrolysis mixture",[2]; 1 h,10.8%
same,"% Oxycodone, % IVD in hydrolysis mixture",[2]; 2 h,2%
same,hydrolysis of the ketal,"[4]; pH 1, 0 h",0
same,hydrolysis of the ketal,"[4]; pH 1, 0.33 h",55.2
same,hydrolysis of the ketal,"[4]; pH 1, 1 h",89.2
same,hydrolysis of the ketal,"[4]; pH 1, 2 h",98
same,hydrolysis of the ketal,"[4]; pH 1, 4 h",100
same,hydrolysis of the ketal,"[4]; pH 1.5, 0 h",0
same,hydrolysis of the ketal,"[4]; pH 1.5, 0.33 h",14.9
same,hydrolysis of the ketal,"[4]; pH 1.5, 1 h",34.4
same,hydrolysis of the ketal,"[4]; pH 1.5, 2 h",51.9
same,hydrolysis of the ketal,"[4]; pH 1.5, 4 h",80.4
same,hydrolysis of the ketal,"[4]; pH 2, 0 h",0
same,hydrolysis of the ketal,"[4]; pH 2, 0.33 h",4.6
same,hydrolysis of the ketal,"[4]; pH 2, 1 h",13.3
same,hydrolysis of the ketal,"[4]; pH 2, 2 h",24.2
same,hydrolysis of the ketal,"[4]; pH 2, 4 h",40.9
same,hydrolysis of the ketal,"[4]; pH 2.5, 0 h",0
same,hydrolysis of the ketal,"[4]; pH 2.5, 0.33 h",0
same,hydrolysis of the ketal,"[4]; pH 2.5, 1 h",0
same,hydrolysis of the ketal,"[4]; pH 2.5, 2 h",8.4
same,hydrolysis of the ketal,"[4]; pH 2.5, 4 h",14.7
same,hydrolysis of the ketal,"[4]; pH 3, 0 h",0
same,hydrolysis of the ketal,"[4]; pH 3, 0.33 h",0
same,hydrolysis of the ketal,"[4]; pH 3, 1 h",0
same,hydrolysis of the ketal,"[4]; pH 3, 2 h",3.4
same,hydrolysis of the ketal,"[4]; pH 3, 4 h",6.4
same,pH at which hydrolysis of the ketal is fastest,[4]; pH buffers 37° C.,fastest at pH 1
same,"% Oxycodone, % IVA-IVD in hydrolysis mixture",[3]; 0 h,17.6%
same,"% Oxycodone, % IVA-IVD in hydrolysis mixture",[3]; 0.5 h,1.5%
same,"% Oxycodone, % IVA-IVD in hydrolysis mixture",[3]; 1 h,0%
same,"% Oxycodone, % IVA-IVD in hydrolysis mixture",[3]; 2 h,0%
same,"% Oxycodone, % IVA-IVD in hydrolysis mixture",[3]; 4.35 h,0%
same,"% Oxycodone, % IVA-IVD in hydrolysis mixture",[3]; 10 h,0%
